From US20240360185A1, “AV3 MUTANT INSECTICIDAL POLYPEPTIDES AND METHODS FOR PRODUCING AND USING SAME” (Vestaron Corporation, priority 2018, published 2024)
Where “and” joins values, the source holds several entries; their conditions need not be identical. Identical values can stand only once. Entries after “also recorded” stand apart in the source; their conditions may differ. Ends that are not written are not given here.

Assays:
[1] = system: Aedes aegypti; assay: adult mosquito topical bioassay; type: in vivo; details: for activity relative to native Av3: 3 hours post application; for Knock-down 50 at 3 hr, Average: Table 5; for KD50 at 3-hours: post topical application; for synergy with permethrin: permethrin 500 ppb; for Knock-down 50 at 3 hr: Table 5, single determinations; for paralysis and kill of adult mosquitos upon topical application: in vivo
Experimental: Native Av3, R1K mutant Av3 (Av3a) and R1K+AC-Val double mutant Av3 (Av3a-C1, or Av3b) were evaluated in the adult mosquito topical bioassay. The adult mosquitoes were ordered from Benzon Research. The adult mosquitoes were immobilized using CO2 gas and transferred onto a CO2 pad with CO2 flowing to keep them immobilized during topical applications. A hand microapplicator equipped with 1 cc glass syringe with a 30 gouge straight needle was used for the application of droplet. 0.25 μl droplet of toxin solution per mosquito was pushed out from the needle and gently applied to the ventral side of the mosquito abdomen. The treated mosquitoes were put into a 2.5 oz. clear cup with moisture filter paper and lid with breathing holes. Score the treated mosquitoes for paralysis or death within 24 hours post-application. […] FIG. 13.

[2] = system: houseflies (Musca domestica); assay: housefly injection assay; type: in vivo; details: for effect on housefly mortality: dose of 10, 50, and 100 nmol/g for 24 hours; for activities in fly injection assay / toxicity to houseflies by injection: in vivo; for recovery of the knock-down flies: 100 pmol/g dose; for lethal activity to houseflies: injection; for lowest dose to produce knock-down activity: within the first 4 hours post injection
Experimental: An exemplary housefly injection bioassay is as follows: conditioned media is serially diluted to generate full dose-response curves from the housefly injection bioassay. Before injection, adult houseflies (Musca domestica) are immobilized with CO2, and 12-18 mg houseflies are selected for injection. A microapplicator, loaded with a 1 cc syringe and 30-gauge needle, is used to inject 0.5 μL per fly, doses of serially diluted conditioned media samples into houseflies through the body wall of the dorsal thorax. The injected houseflies are placed into closed containers with moist filter paper and breathing holes on the lids, and they are examined by knock-down ratio or by mortality scoring at 24 hours post-injection. Normalized yields are calculated. Peptide yield means the peptide concentration in the conditioned media in units of mg/L. However, peptide yields are not always sufficient to accurately compare the strain production rate. […] The cell density is represented by the light absorbance at 600 nm with a unit of “A” (Absorbance unit).
A Housefly injection assay was performed to compare the activity of Av3b with GenScript Synthetic Av3b. FIG. 33. Adult houseflies were immobilized in CO2 for 10 minutes and then transferred to a CO2 pan to keep them immobilized. Flies with weight between 12-20 mg were picked for injection. The synthetic peptides were diluted in water to proper doses for injection. 0.5 μL peptide solution was injected into housefly at the dorsal thorax using a hand-microapplicator with 1 cc all-glass syringe with 30 gouge straight needle. The injected flies were then transferred to a 2 oz transparent portion container with a wet #4 filter paper. Fly score was accessed at 2 hour, 3 hour, 4 hour and 24 hour post-injection. […] Core-5 and Core-4 synthetic polypeptides were also evaluated in the housefly injection assay. FIG. 34. […] FIG. 36.

[3] = system: crustacean and insect sodium channels; details: cited from earlier work
[4] = system: houseflies; assay: housefly feeding assay (oral toxicity); type: in vivo
Experimental: The oral toxicity of Av3+2−C1 peptide was evaluated in the housefly feeding assay by mixing 20 PPT Av3+2−C1 with fly food (1:1 sugar: dry milk) and observed for 96 hours. Knock-down and dead flies were observed starting at 24-hour post-feeding and accumulated with time. FIG. 19. Unlike the housefly injection bioassay, recovery from paralysis in the feeding assay was not observed, likely due to the fact that the houseflies were continuously dosed in the later bioassay. FIG. 20.

[5] = incubation of purified peptide in fermentation beer with untransformed K. lactis; type: physicochemical; details: 8 days at room temperature
Experimental: The pLB102-YCT-18 strain's apparent expression of two Av3+2 peptides, i.e., Av3+2 and Av3+2−C1, raised the question as to whether the C-Val cleavage observed in Peak 1 (SEQ ID NO: 19) occurred during peptide expression and secretion, or whether it occurred in the spent medium/fermentation beer as a result of endogenous proteases secreted from K. lactis. To answer this question, Av3+2 peptide was purified according to the abovementioned methods, and incubated with the fermentation beer in concert with untransformed K. lactis strain (i.e., a null strain) for 8 days at room temperature (RT). FIG. 4.

[6] = Table 9, synthetic polypeptides
[7] = 1000 pmol/g dose, overnight observation

Q: With KSCCPCYWGGCPWGQNCYPEGCSGPKV [Av3a] as the substance, how does the “activity relative to native Av3” value [1] read?
A: the same as native Av3

Q: What about the “Knock-down 50 at 3 hr, Average” value [1] of the same substance?
A: 109.05 ppm

Q: What about the “KD50 at 3-hours” value [1] of the same substance?
A: 38.8 ppm

Q: For “KPYWPWYKV (Pharmacophore mutant) [Core-2]”, which “effect on housefly mortality” value [2] is on record?
A: did not appear to have an effect on housefly mortality

Q: For “KPYWPWYK (Pharmacophore mutant) [Core-3]”, which “effect on housefly mortality” value [2] is on record?
A: did not appear to have an effect on housefly mortality

Q: Which “KD50 at 3 hr” value ([2]; Table 8, synthetic peptide) does the source give for “KSCCPCYWGGCPWGQNCYPEGCSGPK [Synthetic Av3b]” here?
A: 633.02 pmol/g

Q: What about the “KD50 at 3 hr” value [2, 6] of the same substance?
A: 540 pmol/g

Q: What about the “activities in fly injection assay” value [2] of the same substance?
A: showed activities in fly injection assay

Q: With “KACCPCYWAACPWAAACYAAACAAAK (Pharmacophore mutant) [Core 4]” as the substance, how does the “activities in fly injection assay” value [2] read?
A: dramatically reduced activities

Q: Which “recovery of the knock-down flies” value ([2]; overnight observation) does the source give for “RSCCPCYWGGCPWGQNCYPEGCSGPKV [Av3, reference compound]” here?
A: very rare

Q: What about the “KD50 at 4-hours” value ([2]; housefly injection) of the same substance?
A: 606 pmol/g

Q: What about the “toxicity to houseflies by injection” value [2] of the same substance?
A: toxic to houseflies

Q: What about the “lethal activity to houseflies” value [2] of the same substance?
A: no potent lethal activity

Q: And the “Knock-down 50 at 3 hr, Average” value [1]?
A: 45.98 ppm

Q: And the synergy with permethrin [1]?
A: some synergy

Q: What about the “KD50 at 3-hours” value ([1]; listed as Native Av3) of the same substance?
A: 58 ppm and 42.6 ppm

Q: What about the “recovery after maximum knock-down” value ([1]; topical application) of the same substance?
A: no obvious recovery observed thereafter

Q: And the “time at which knock-down effect reached its maximum” value ([1]; topical application)?
A: 1 h

Q: What about the “selectivity for crustacean and insect sodium channels” value [3] of the same substance?
A: high selectivity

Q: Which “KD50 at 3 hr” value ([2]; Table 8, AAA Calibrate stock at 32.5 mg/mL) does the source give for KSCCPCYWGGCPWGQNCYPEGCSGPK [Av3b] here?
A: 172.22 pmol/g

Q: What about the “KD50 at 3 hr” value ([2]; Table 8, non-AAA stock at 50 mg/mL) of the same substance?
A: 265.21 pmol/g

Q: And the “activity relative to native Av3” value ([1]; listed as Av3a-C1)?
A: two-fold less active; also recorded: about twice as less active

Q: And the “Knock-down 50 at 3 hr, Average” value [1]?
A: 81.63 ppm

Q: What about the “Knock-down 50 at 3 hr” value ([1]; listed as Av3a-C1) of the same substance?
A: 86.9 ppm and 86.1 ppm and 71.9 ppm

Q: And the “KD50 at 3-hours” value [1]?
A: 71.9 ppm

Q: Which “recovery of knock-down flies” value [2, 7] does the source give for “GSRSCCPCYWGGCPWGQNCYPEGCSGPK (ends and bridges not checked; cysteine pairing not given here) [Av3+2−C1]” here?
A: Recovery of the knock-down flies was observed

Q: What about the “recovery of knock-down flies” value ([2]; 5000 and 20000 pmol/g doses) of the same substance?
A: No recovery was observed

Q: And the “KD50 at 4-hours” value ([2]; housefly injection)?
A: 651 pmol/g

Q: And the “lowest dose to produce knock-down activity” value [2]?
A: 500 pmol/g

Q: What about the “Knock-down 50 at 3 hr, Average” value [1] of the same substance?
A: 747.9 ppm

Q: And the “Knock-down 50 at 3 hr” value [1]?
A: 952.7 ppm and 543.1 ppm

Q: And the “paralysis and kill of adult mosquitos upon topical application” value [1]?
A: fast paralyze and eventually kill adult mosquitoes

Q: What about the “KD50 at 3-hours” value [1] of the same substance?
A: 543.12 ppm and 500-900 ppm and 952.69 ppm

Q: And the “recovery after maximum knock-down” value ([1]; topical application)?
A: recovery was observed thereafter

Q: What about the “knock-down and dead flies first observed post-feeding” value ([4]; 20 PPT mixed with fly food) of the same substance?
A: 24 h

Q: What about the “oral toxicity to houseflies” value ([4]; 20 PPT mixed with fly food, observed for 96 hours) of the same substance?
A: toxic to houseflies when consumed and/or upon oral contact

Q: What about the recovery from paralysis ([4]; continuous feeding, 20 PPT) of the same substance?
A: not observed

Q: Which “effect on housefly mortality” value [2] does the source give for PYWPWY (Pharmacophore mutant) [Core-1] here?
A: did not appear to have an effect on housefly mortality

Q: Which “recovery of knock-down flies” value [2, 7] does the source give for “GSRSCCPCYWGGCPWGQNCYPEGCSGPKV (not fully specified; ends and bridges not checked) [Av3+2]” here?
A: Recovery of the knock-down flies was observed

Q: What about the “recovery of knock-down flies” value ([2]; 5000 and 20000 pmol/g doses) of the same substance?
A: No recovery was observed

Q: What about the “paralysis effect in combination with fermentation beer from AaIT1 expression K. lactis strain” value ([2]; Av3+2 peptide at 500 pmol/g dose) of the same substance?
A: synergistic instead of additive paralysis effect

Q: What about the “KD50 at 4-hours” value ([2]; housefly injection) of the same substance?
A: 490 pmol/g

Q: And the “toxicity to houseflies by injection” value [2]?
A: toxic to houseflies

Q: What about the “lowest dose to produce knock-down activity” value [2] of the same substance?
A: 100 pmol/g

Q: What about the “Knock-down 50 at 3 hr, Average” value [1] of the same substance?
A: 281.5 ppm

Q: What about the “Knock-down 50 at 3 hr” value [1] of the same substance?
A: 230 ppm and 235.7 ppm and 347.7 ppm and 312.6 ppm

Q: What about the “KD50 relative to that observed for native Av3” value ([1]; at 3-hours) of the same substance?
A: roughly 5 fold

Q: What about the “paralysis and kill of adult mosquitos upon topical application” value [1] of the same substance?
A: fast paralyze and eventually kill adult mosquitoes

Q: What about the synergy with permethrin ([1]; peptide 200 ppm) of the same substance?
A: some synergy

Q: And the “KD50 at 3-hours” value [1]?
A: 235.71 ppm and 312.57 ppm and 200-300 ppm and 229.9 ppm

Q: What about the “recovery after maximum knock-down” value ([1]; topical application) of the same substance?
A: limited recovery thereafter; also recorded: recovery observed over time; also recorded: not much recovery effects observed thereafter

Q: What about the “C-Val cleavage / stability” value [5] of the same substance?
A: did not result in any apparent C-Val cleavage

Q: With “KACCPCYWGGCPWGAACYPAGCAAAK (Pharmacophore mutant) [Core 5]” as the substance, how does the “KD50 at 3 hr” value [2, 6] read?
A: 1621 pmol/g

Q: What about the activity reduced ([2]; housefly injection) of the same substance?
A: around 3 fold

Q: Which “recovery of the knock-down flies” value ([2]; overnight observation) does the source give for “RSCCPCYWGGCPWGQNCYPEGCSGPK (ends and bridges not checked; cysteine pairing not given here) [Av3-C1]” here?
A: very rare

Q: And the “KD50 at 4-hours” value ([2]; housefly injection)?
A: 521 pmol/g

Q: What about the “lethal activity to houseflies” value [2] of the same substance?
A: no potent lethal activity
